According to US7473437B2, “Method of forming fluorescent image, fluorescent image, and ink-jet recording method” (Canon Kabushiki Kaisha, priority 2004, dated 2009):
Where “and” joins values, the source holds several entries; their conditions need not be identical. Equal entries are not always repeated.

Legend:
Format in all cases: physicochemical
[1] = Fluorescent coloring material content causing concentration quenching; conditions: image printed on a recording material
Method: The following respective components as ink composition to be used were mixed and sufficiently stirred, and the resultant was dissolved and/or dispersed. After that, the resultant was filtered through a Phloropore filter (trade name; manufactured by Sumitomo Electric Industries, Ltd.) having a pore size of 0.1 μm under pressure to prepare each ink. An ink 1, an ink 2, an ink 3, and an ink 5 were defined as inks of Examples and an ink 4 was defined as Reference Example. The content of each fluorescent coloring material in ink for causing the concentration quenching of a fluorescent image printed on a recording material is 0.3% by mass or more for C.I. Acid Red 52, 2.0% by mass or more for C.I. Acid Red 92, or more than 2.0% by mass for the compound (A).
In each of the above ink compositions, the fluorescence intensity of each of the inks 1 to 4 was measured by means of a commercially available fluorescence measuring device […] (trade name; manufactured by JASCO Corporation).

[2] = Fluorescent emission and excitation spectra of evaporated ink (FP-750); conditions: standard excitation wavelength 254 nm
Method: At first, a predetermined amount (in this case, 0.3% by mass with respect to the solution) of C.I. Acid Red 52 (AR52) as the first fluorescent coloring material was dissolved into an aqueous solution (an organic solvent such as glycerin and purified water), followed by heating at 60° C. to completely vaporize water content, resulting in ink (hereinafter, referred to as evaporated ink).
The fluorescent emission spectra and excitation spectra of the first and second fluorescent coloring materials were measured using a fluorometer FP-750 (trade name; manufactured by JASCO Corporation). Each measurement sample was an ink from which water content was evaporated to remove the influence of water on the measurement.

[3] = Light absorption spectrum of coloring materials
Method: Next, the multiple fluorescent coloring materials will be described more specifically with reference to multiple fluorescence examples and reference examples. Here, measurement values obtained with purified water diluted solutions of coloring materials were used for an absorption wavelength region, a maximum absorption wavelength region, and a fluorescence wavelength region. Using an absorption spectrometer, absorption wavelengths were measured. A diluted solution was prepared in such a manner that the absorbance thereof was in the range of 0.5 to 0.7. A higher region from a base line as the absorption peak of the coloring material was defined as an absorption wavelength region, and the peak value was defined as a maximum absorption wavelength. In addition, for fluorescence wavelengths, the measurement conditions were set so that the fluorescence intensities were not beyond the measurement threshold value. Then, fluorescence wavelengths were measured by using the diluted solution used in the measurement of absorbance and by fixing the excitation wavelengths of the first and second coloring materials at predetermined wavelengths. A region higher than the base line was defined as a fluorescent emission wavelength region.
The absorption wavelength regions of the first and second coloring materials were measured using a spectrophotometer U-3200 (trade name; manufactured by Hitachi Ltd.) after the dye had been diluted 100,000-fold with purified water. The absorption wavelength region of the first coloring material ranged from 450 to 620 nm, and the maximum absorption wavelength thereof was 565 nm. In addition, the absorption wavelength region of the second coloring material ranged from 300 to 450 nm, and the maximum absorption wavelength thereof was 372 nm.

| Structure (SMILES) | content of fluorescent coloring material in ink causing concentration quenching of a printed fluorescent image [1] [% by mass] | fluorescent emission peak wavelength [2] [nm] | maximum absorption wavelength ([3]; dye diluted 100,000-fold with purified water, spectrophotometer U-3200) [nm] | absorption peak wavelength ([3]; from FIGS. 5, 6, 12, listed as AR52) | absorption peak wavelength ([3]; from FIGS. 5, 6, 12) [nm] | absorption spectrum range, visible light ([3]; from FIGS. 5, 6, 12) [nm] |
| --- | --- | --- | --- | --- | --- | --- |
| CCN(CC)c1ccc2c(-c3ccc(S(=O)(=O)[O-])cc3S(=O)(=O)[O-])c3ccc(=[N+](CC)CC)cc-3oc2c1.[Na+] [C.I. Acid Red 52] | ≥ 0.3 | 600 | 565 | 565 nm and ~560 nm |  |  |
| O=C([O-])c1c(Cl)c(Cl)c(Cl)c(Cl)c1-c1c2cc(Br)c(=O)c(Br)c-2oc2c(Br)c([O-])c(Br)cc12.[Na+].[Na+] [C.I. Acid Red 92] | ≥ 2.0 |  |  |  |  |  |
| O=C([O-])c1ccccc1-c1c2ccc(=O)cc-2oc2cc([O-])ccc12.[Na+].[Na+] [C.I. Acid Yellow 73, reference compound] |  | 530 |  |  | 490 | ≤ 525 |
